In patent publication US7994179B2, “Carbamoyl compounds as DGAT1 inhibitors 190” (AstraZeneca AB, priority 2007, dated 2011) one finds IC50 and inhibition data, which are given here for 29 compounds.

The target of the first assay is T1, human DGAT1 expressed in insect cell membranes (Homo sapiens, UniProt O75907).
T1 construct: made in house; host or cells: sf9 insect cells (baculovirus), membrane fraction
T1 sequence (O75907 1-488): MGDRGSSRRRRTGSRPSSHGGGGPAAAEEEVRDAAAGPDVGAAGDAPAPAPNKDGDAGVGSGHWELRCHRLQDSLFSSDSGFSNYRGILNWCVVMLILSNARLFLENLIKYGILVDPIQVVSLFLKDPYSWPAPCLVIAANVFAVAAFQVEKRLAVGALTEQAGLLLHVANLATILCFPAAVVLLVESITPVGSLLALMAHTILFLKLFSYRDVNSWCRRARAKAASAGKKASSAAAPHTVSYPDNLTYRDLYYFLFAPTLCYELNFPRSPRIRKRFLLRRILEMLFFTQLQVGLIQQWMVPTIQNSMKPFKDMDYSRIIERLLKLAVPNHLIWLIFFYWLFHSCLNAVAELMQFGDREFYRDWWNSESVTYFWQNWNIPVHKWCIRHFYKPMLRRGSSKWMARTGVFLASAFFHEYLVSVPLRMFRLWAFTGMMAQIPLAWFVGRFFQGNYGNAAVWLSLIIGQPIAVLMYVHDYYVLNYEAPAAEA
Description: Human Enzyme Assay: in vitro DGAT1 inhibition, 14C oleoyl coenzyme A incorporation into triolein. It counts as biochemical.
Conditions: not given
The procedure: Briefly, sf9 cells were infected with recombinant baculovirus containing human DGAT1 coding sequences and harvested after 48 h. […] The membrane fraction at the interphase was collected, washed, and stored in liquid nitrogen.
The reaction was started by adding ^14C oleoyl coenzyme A (30 μM final concentration) and incubated at room temperature for 30 minutes. The reaction was stopped by adding 200 μl 2-propanol:heptane 7:1. Radioactive triolein product was separated into the organic phase by adding 300 μl heptane and 100 μl 0.1 M carbonate buffer pH 9.5. DGAT1 activity was quantified by counting aliquots of the upper heptane layer by liquid scintillography.
Stated figures are usually a mean of a number of measurements (usually 2 measurements) according to standard practice.
By IC50 is commonly meant the concentration needed to halve the response being measured. `Cc1nc(C)c(-c2ccc([C@H]3CC[C@H](CC(=O)O)CC3)cc2)nc1C(N)=O` [Example 1, {trans-4-[4-(6-Carbamoyl-3,5-dimethylpyrazin-2-yl)phenyl]cyclohexyl}acetic acid] displayed an IC50 of 79 nM.

The same assay, now with this note: acetone concentration not stated for these values; usually a mean of 2 measurements; read-out: IC50.
For `Cc1nc(C)c(-c2ccc([C@H]3CC[C@H](CC(=O)NS(C)(=O)=O)CC3)cc2)nc1C(N)=O` [Example 2, 3,5-Dimethyl-6-[4-(trans-4-{2-[(methylsulfonyl)amino]-2-oxoethyl}cyclohexyl)-phenyl]pyrazine-2-carboxamide], the IC50 came out at 71 nM.
As for `Cc1nc(C)c(-c2ccc([C@H]3CC[C@H](CC(=O)NC(C)(C)C(=O)O)CC3)cc2)nc1C(N)=O` [Example 4, N-({trans-4-[4-(6-Carbamoyl-3,5-dimethylpyrazin-2-yl)phenyl]cyclohexyl}acetyl)-2-methylalanine], the concentration for half-maximal inhibition (IC50) amounted to 42 nM.
On to `Cc1nc(C)c(-c2ccc([C@H]3CC[C@H](CCO)CC3)cc2)nc1C(N)=O` [Example 5, 6-{4-[trans-4-(2-Hydroxyethyl)cyclohexyl]phenyl}-3,5-dimethylpyrazine-2-carboxamide], for which the half-inhibitory concentration (IC50) is 18 nM.
The same measure, in the same setting: with `Cc1nc(C)c(-c2ccc(O[C@H]3CC[C@@H](C(=O)O)CC3)nc2)nc1C(N)=O` [Example 6, cis-4-{[5-(6-Carbamoyl-3,5-dimethylpyrazin-2-yl)pyridin-2-yl]oxy}cyclohexanecarboxylic acid] the figure was 5710 nM.
Still for that read-out and setting: under `Cc1nc(C)c(-c2ccc(O[C@H]3CC[C@@H](CC(=O)O)CC3)nc2)nc1C(N)=O` [Example 7, (cis-4-{[5-(6-Carbamoyl-3,5-dimethylpyrazin-2-yl)pyridin-2-yl]oxy}cyclohexyl)acetic acid] stands 5090 nM; under `CCc1nc(C)c(C(N)=O)nc1-c1ccc([C@H]2CC[C@H](CC(=O)O)CC2)cc1` [Example 9, {trans-4-[4-(6-Carbamoyl-3-ethyl-5-methylpyrazin-2-yl)phenyl]cyclohexyl}acetic acid], 674 nM; under `Cc1ncc(C(N)=O)nc1-c1ccc([C@H]2CC[C@H](CC(=O)O)CC2)cc1` [Example 11, {trans-4-[4-(6-Carbamoyl-3-methylpyrazin-2-yl)phenyl]cyclohexyl}acetic acid], 102 nM.
Same read-out and setting: with `NC(=O)c1cncc(-c2ccc([C@H]3CC[C@H](CC(=O)O)CC3)cc2)n1` [Example 13, {trans-4-[4-(6-Carbamoylpyrazin-2-yl)phenyl]cyclohexyl}acetic acid] the figure was 428 nM; with `NC(=O)C[C@H]1CC[C@H](c2ccc(-c3cncc(C(N)=O)n3)cc2)CC1` [Example 14, 6-{4-[trans-4-(2-Amino-2-oxoethyl)cyclohexyl]phenyl}pyrazine-2-carboxamide], 159 nM; with `NC(=O)c1cncc(-c2ccc([C@H]3CC[C@H](CCO)CC3)cc2)n1` [Example 15, 6-{4-[trans-4-(2-Hydroxyethyl)cyclohexyl]phenyl}pyrazine-2-carboxamide], 157 nM.
Regarding `COC(=O)C(C)(C)NC(=O)C[C@H]1CC[C@H](c2ccc(-c3cncc(C(N)=O)n3)cc2)CC1` [Example 16, Methyl N-({trans-4-[4-(6-carbamoylpyrazin-2-yl)phenyl]cyclohexyl}acetyl)-2-methylalaninate], the IC50 was determined as 1230 nM.
Same read-out and setting: under `CC(C)(NC(=O)C[C@H]1CC[C@H](c2ccc(-c3cncc(C(N)=O)n3)cc2)CC1)C(=O)O` [Example 17, N-({trans-4-[4-(6-Carbamoylpyrazin-2-yl)phenyl]cyclohexyl}acetyl)-2-methylalanine] stands 418 nM; under `NC(=O)c1nc(-c2ccc([C@H]3CC[C@H](CC(=O)O)CC3)cc2)cnc1N` [Example 18, 3-Carbamoyl-5-{4-[trans-4-(carboxymethyl)cyclohexyl]phenyl}pyrazin-2-aminium chloride], 2850 nM.
Regarding `Cc1nc(C)c(-c2ccc(C34CCC(C(=O)O)(CC3)CC4)cc2)nc1C(N)=O` [Example 21, 4-(4-(6-Carbamoyl-3,5-dimethylpyrazin-2-yl)phenyl)bicyclo[2.2.2]octane-1-carboxylic acid], the IC50 is 270 nM.
The same measure, in the same setting: with `Cc1nc(C)c(-c2ccc(C34CC5CC(CC(C(=O)O)(C5)C3)C4)cc2)nc1C(N)=O` [Example 23, 3-[4-(6-Carbamoyl-3,5-dimethylpyrazin-2-yl)phenyl]adamantane-1-carboxylic acid] the figure was 96 nM; with `Cc1nc(C)c(-c2ccc(C34CC5CC(CC(CC(=O)O)(C5)C3)C4)cc2)nc1C(N)=O` [Example 24, 2-[3-[4-(6-Carbamoyl-3,5-dimethylpyrazin-2-yl)phenyl]-1-adamantyl]acetic acid], 1000 nM.
On to `Cc1nc(C)c(-c2ccc(O[C@H]3CC[C@H](C(=O)O)CC3)c(Cl)c2)nc1C(N)=O` [Example 26, (1r,4r)-4-(4-(6-Carbamoyl-3,5-dimethylpyrazin-2-yl)-2-chlorophenoxy)cyclohexanecarboxylic acid], for which the IC50 is 1500 nM.
Still for that read-out and setting: with `Cc1nc(C)c(-c2ccc(O[C@H]3CC[C@@H](C(=O)O)CC3)c(Cl)c2)nc1C(N)=O` [Example 27, (1s,4s)-4-(4-(6-Carbamoyl-3,5-dimethylpyrazin-2-yl)-2-chlorophenoxy)cyclohexanecarboxylic acid] the figure was 310 nM.
Still for that read-out and setting: with `Cc1nc(C)c(-c2ccc3c(c2)CC[C@]32CC[C@H](CC(=O)O)CC2)nc1C(N)=O` [Example 29, 2-((1s,4r)-5′-(6-Carbamoyl-3,5-dimethylpyrazin-2-yl)-2′,3′-dihydrospiro[cyclohexane-1,1′-indene]-4-yl)acetic acid] the figure was 100 nM.
Still for that read-out and setting: under `Cc1nc(C)c(-c2ccc3c(c2)CC[C@]32CC[C@@H](CC(=O)O)CC2)nc1C(N)=O` [Example 30, 2-((1r,4s)-5′-(6-Carbamoyl-3,5-dimethylpyrazin-2-yl)-2′,3′-dihydrospiro[cyclohexane-1,1′-indene]-4-yl)acetic acid] stands 32 nM; under `Cc1nc(C)c(-c2ccc(N3CCC(CC(=O)O)CC3)cc2)nc1C(N)=O` [Example 33, 2-(1-(4-(6-Carbamoyl-3,5-dimethylpyrazin-2-yl)phenyl)piperidin-4-yl)acetic acid], 1300 nM; under `Cc1nc(C)c(-c2ccc(N3CCC[C@H](C(=O)O)C3)cc2)nc1C(N)=O` [Example 34], 3000 nM.
Regarding `Cc1nc(C)c(-c2ccc(N3CCC[C@@H](C(=O)O)C3)cc2)nc1C(N)=O` [Example 35], the half-inhibitory concentration (IC50) was 960 nM.
With `Cc1nc(C)c(-c2ccc(N3CCC(C(=O)O)CC3)cc2)nc1C(N)=O` [Example 38], the IC50 was determined as 2400 nM.
Same read-out and setting: with `Cc1nc(C)c(-c2ccc(N3CCC(C(C)C(=O)O)CC3)cc2)nc1C(N)=O` (stereo not drawn) [Example 39] the figure was 3000 nM.
Still for that read-out and setting: with `Cc1nc(C)c(-c2ccc(N3CCC(CC(=O)O)C3)cc2)nc1C(N)=O` (stereo not drawn) [Example 40, 2-(1-(4-(6-Carbamoyl-3,5-dimethylpyrazin-2-yl)phenyl)pyrrolidin-3-yl)acetic acid] the figure was 1200 nM.

Still in this assay, the particulars now being: assay acetone concentration of 1.8%; read-out: IC50.
Consider `Cc1nc(C)c(-c2ccc([C@H]3CC[C@H](CC(=O)O)CC3)cc2)nc1C(N)=O` [Example 1, {trans-4-[4-(6-Carbamoyl-3,5-dimethylpyrazin-2-yl)phenyl]cyclohexyl}acetic acid], for which the IC50 was 16 nM.

Staying with this assay, now noted: compound at 10 μM.
In general, inhibition refers to the change of the read-out against control, counted positive when it falls. Lower therefore signals a weak effect. In turn, `Cc1nc(C)c(-c2ccc(N3CCN(CC(=O)O)CC3)cc2)nc1C(N)=O` [Example 36] yielded an inhibition at 10 µM of 46 to 67%.
`Cc1nc(C)c(-c2ccc(N3CCC[C@H](CC(=O)O)C3)cc2)nc1C(N)=O` [Example 37]: the inhibition at 10 µM was 47 to 50%.
